The results in this text go back to PubChem BioAssay (NCI).

Some test systems named below: HCC-2998 colon; MDA-MB-231 breast; HT29 colon; KM12 colon; NCI-H226 lung; SF-268 CNS; MDA-MB-435; MALME-3M melanoma; RXF 393 renal; NCI/ADR-RES ovarian.
What all share (assay): inhibition of tumour cell growth, NCI panel, 48 h

Structures are written as SMILES. Several values for one entry are separate records, joined by “and”; a condition that tells them apart may be missing. Equal entries are not always repeated.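 Grown in 96-well plates, cells were treated for 48 hours with each compound at five concentrations. Insufficient inhibition: endpoint recorded as highest concentration tested. At the GI50, growth is halved. At the TGI there is no net growth.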 Bounds are passed on as bounds.

`CC(=O)Oc1ccc(Nc2c3ccccc3nc3ccccc23)cc1`: the GI50 with HCC-2998 colon was 1.97 µM; with MDA-MB-231 breast, 1.7 µM; in the experiment on HT29 colon, 1.1 µM; in the experiment with KM12 colon, 1.88 µM; with NCI-H226 lung, 0.675 µM; in the experiment on SF-268 CNS it was 1.86 µM. For the same molecule, the GI50 with MDA-MB-435 is 2.17 µM; in the experiment on MALME-3M melanoma, 1.31 µM; in the experiment with RXF 393 renal it was 1.08 µM; in the experiment with NCI/ADR-RES ovarian it was 2.25 µM. The TGI turned out to be 14.3 µM with HCC-2998 colon; 6.23 µM in the experiment with MDA-MB-231 breast; 3.53 µM in the experiment on HT29 colon; 10.5 µM with KM12 colon; 3.08 µM in the experiment on NCI-H226 lung; 12.4 µM in the experiment with SF-268 CNS. Also, the TGI in the experiment on MDA-MB-435 is 8.16 µM; in the experiment on MALME-3M melanoma, 5.35 µM; with RXF 393 renal, 2.93 µM; with NCI/ADR-RES ovarian it was 12.1 µM.

`CN1CCc2c(Sc3ccc(C(=O)NO)cc3)c3ccccc3n2C1`: the GI50 is 1.77 µM in the experiment with HCC-2998 colon; 1.75 µM with MDA-MB-231 breast; 2.83 µM in the experiment on HT29 colon; 1.72 µM in the experiment with KM12 colon; 2.75 µM in the experiment on NCI-H226 lung; 1.85 µM in the experiment with SF-268 CNS. In addition, the GI50 in the experiment on MDA-MB-435 is 1.61 µM; with MALME-3M melanoma it was 1.12 µM; with RXF 393 renal it was 2.37 µM; in the experiment with NCI/ADR-RES ovarian, 6.81 µM. The TGI came out at 3.86 µM in the experiment on HCC-2998 colon; 4.19 µM in the experiment with MDA-MB-231 breast; 12.2 µM with HT29 colon; 3.67 µM with KM12 colon; 14.9 µM with NCI-H226 lung; 4.31 µM in the experiment on SF-268 CNS. Besides, the TGI in the experiment on MDA-MB-435 came to 3.34 µM; in the experiment on MALME-3M melanoma it was 4.33 µM; in the experiment with RXF 393 renal, 9.51 µM; in the experiment with NCI/ADR-RES ovarian it was 51.7 µM.

`O=C(N/N=C\c1cc(Br)ccc1O)c1ccncc1`: the GI50 with HCC-2998 colon is 1.81 µM; in the experiment with MDA-MB-231 breast, 5.88 µM; in the experiment with HT29 colon it was 5.7 µM; in the experiment with KM12 colon, 1.97 µM; in the experiment with NCI-H226 lung it was 1.86 µM; in the experiment on SF-268 CNS it was 1.4 µM. Further, the GI50 is 5.36 µM with MDA-MB-435, 5.76 µM in the experiment with MALME-3M melanoma, 1.89 µM in the experiment with RXF 393 renal and 1.42 µM in the experiment on NCI/ADR-RES ovarian. Further, the TGI is > 100 µM with HCC-2998 colon; > 100 µM with MDA-MB-231 breast; > 100 µM in the experiment on HT29 colon; > 100 µM with KM12 colon; 32.6 µM in the experiment on NCI-H226 lung; > 100 µM with SF-268 CNS. Besides, the TGI is > 100 µM in the experiment on MDA-MB-435, 78.5 µM with MALME-3M melanoma, > 100 µM with RXF 393 renal and 34.5 µM in the experiment with NCI/ADR-RES ovarian.

On to `CCOC(=O)C1=C(C)N(N)C(=S)NC1c1ccc(C)cc1` (centres undefined), for which the GI50 in the experiment on HCC-2998 colon is 0.811 µM; with MDA-MB-231 breast, 1.2 µM; with HT29 colon, 26 µM; with KM12 colon, 64.4 µM; in the experiment with NCI-H226 lung, 33.8 µM; in the experiment on SF-268 CNS, 67 µM. Further, the GI50 was 14.8 µM in the experiment on MDA-MB-435, 14.4 µM in the experiment on MALME-3M melanoma, 6.44 µM in the experiment on RXF 393 renal and 61.9 µM with NCI/ADR-RES ovarian. For the same molecule, the TGI with HCC-2998 colon is 27.1 µM; in the experiment on MDA-MB-231 breast it was > 100 µM; in the experiment on HT29 colon it was > 100 µM; in the experiment on KM12 colon, > 100 µM; in the experiment with NCI-H226 lung, > 100 µM; with SF-268 CNS, > 100 µM. For the same molecule, the TGI in the experiment on MDA-MB-435 was 72.2 µM; in the experiment with MALME-3M melanoma, > 100 µM; with RXF 393 renal it was > 100 µM; in the experiment with NCI/ADR-RES ovarian, > 100 µM.

For `O=C(O)c1cc(O)c2c(c1)C(C1c3cc(C(=O)O)cc(O)c3C(=O)c3c(OC4OC(CO)C(O)C(O)C4O)cccc31)c1cccc(OC3OC(CO)C(O)C(O)C3O)c1C2=O` (centres undefined), the GI50 in the experiment with HCC-2998 colon, with MDA-MB-231 breast, in the experiment on HT29 colon, with KM12 colon, in the experiment with NCI-H226 lung and in the experiment with SF-268 CNS was > 100 µM in each case. Moreover, the GI50 in the experiment on MDA-MB-435, in the experiment with MALME-3M melanoma, in the experiment with RXF 393 renal and in the experiment on NCI/ADR-RES ovarian was > 100 µM in each case. Moreover, the TGI in the experiment on HCC-2998 colon, in the experiment on MDA-MB-231 breast, with HT29 colon, with KM12 colon, in the experiment with NCI-H226 lung and in the experiment on SF-268 CNS was > 100 µM in each case. In addition, the TGI with MDA-MB-435, in the experiment on MALME-3M melanoma, with RXF 393 renal and with NCI/ADR-RES ovarian was > 100 µM in each case.

Take `N#CC1(C2SCCS2=O)C2=C(C(=O)c3ccccc3C2=O)N2CCCC21` (centres undefined): the TGI in the experiment with HCC-2998 colon stood at 11.8 µM; in the experiment on MDA-MB-231 breast it was 9.21 µM; with HT29 colon, 14.2 µM; in the experiment on KM12 colon, 13.1 µM; in the experiment on NCI-H226 lung, 10.7 µM; in the experiment with SF-268 CNS, 11.2 µM. Besides, the TGI in the experiment on MDA-MB-435 stood at 1.3 µM; in the experiment on MALME-3M melanoma it was 1.27 µM; with RXF 393 renal, 10.9 µM; with NCI/ADR-RES ovarian, 10.2 µM.

Turning to `O=C(Nc1cccc(Cl)c1)c1cc2ccccc2cc1O`, the GI50 in the experiment with HCC-2998 colon was 3.9 µM and 3.39 µM; in the experiment with MDA-MB-231 breast it was 4.65 µM and 2.37 µM; in the experiment on HT29 colon, 45.8 µM and 29.1 µM; with KM12 colon it was 3.17 µM and 2.71 µM; with NCI-H226 lung it was 4.65 µM and 2.68 µM; with SF-268 CNS, 2.58 µM and 2.57 µM. The GI50 with MDA-MB-435 is 2.38 µM and 2.02 µM; with MALME-3M melanoma, 0.71 µM; with RXF 393 renal, 2.74 µM and 2.93 µM; with NCI/ADR-RES ovarian, 2.62 µM and 2.06 µM. In addition, the TGI in the experiment on HCC-2998 colon is > 100 µM; in the experiment on MDA-MB-231 breast it was > 100 µM and 15.4 µM; in the experiment with HT29 colon it was > 100 µM; in the experiment on KM12 colon it was > 100 µM; in the experiment with NCI-H226 lung, > 100 µM; in the experiment on SF-268 CNS, > 100 µM. Also, the TGI was > 100 µM in the experiment on MDA-MB-435; 21.9 µM in the experiment on MALME-3M melanoma; > 100 µM and 14.5 µM with RXF 393 renal.

With `O=C(CN(C1CCCCC1)C1CCCCC1)Nc1ccc(S(=O)(=O)c2ccc(NC(=O)CN(C3CCCCC3)C3CCCCC3)cc2)cc1`, the GI50 in the experiment on HCC-2998 colon is 1.7 µM; in the experiment with MDA-MB-231 breast, 0.432 µM; in the experiment with HT29 colon, 0.39 µM; with KM12 colon, 0.585 µM; with NCI-H226 lung it was 2.06 µM; in the experiment with SF-268 CNS, 0.337 µM. Besides, the GI50 in the experiment with MDA-MB-435 was 0.873 µM; in the experiment on MALME-3M melanoma, 0.334 µM; in the experiment on RXF 393 renal it was 0.817 µM; with NCI/ADR-RES ovarian, 0.89 µM. Moreover, the TGI in the experiment on HCC-2998 colon turned out to be 3.22 µM; with MDA-MB-231 breast it was 1.63 µM; in the experiment on HT29 colon, 1.44 µM; in the experiment with KM12 colon, 2.05 µM; with NCI-H226 lung, 9.43 µM; in the experiment with SF-268 CNS, 1.6 µM. The TGI amounted to 2.35 µM in the experiment on MDA-MB-435, 1.3 µM in the experiment with MALME-3M melanoma, 2.31 µM in the experiment on RXF 393 renal and 6.31 µM in the experiment on NCI/ADR-RES ovarian.
